Assay results from patent US6610675B1 (priority 1980, dated 2003).

Columns and labels:
thymus weight in rats = experiment: Thymus involution test (topically administered steroids, thymus weight in rats)
Protocol: The test animals were female Sprague/Dawley rats weighing approximately 40-45 grams each. One side of each ear of each rat was treated with a total of 25 microliters of a solution (ethanol/isopropyl myristate or acetone/isopropyl myristate, 90/10) containing the amount of test compound indicated below. Animals which were treated identically, save for omission of the test compound, served as controls. After 24 hours, all rats were sacrificed and weighed, and their thymi were removed and weighed.
The lower the weight of the thymi, the greater the systemic activity.

blanching in humans = experiment: McKenzie-type human blanching studies; format: in vivo; conditions: forearm, 6 hours occlusion
Protocol: McKenzie-type human blanching studies were undertaken to study the blanching effects of a representative test compound of the invention, chloromethyl 17α-ethoxycarbonyloxy-11β-hydroxyandrost-4-en-3-one-17β-carboxylate.
The test compound was dissolved in ethanol/isopropyl myristate (90/10 or 70/30) at 0.03, 0.01, 0.003, 0.001 and 0.0003 M concentrations. 50 Microliter aliquots of each solution were applied to separate gauze portions of a bandage of the type commonly used for allergy testing and the bandage was applied to the forearm. After 6 hours of occlusion, the bandage was removed.

[1] = 0.75 μmol topical on ear, after 24 hours

Question: What does the source list for `C[C@]12CCC(=O)C=C1CC[C@@H]1[C@@H]2[C@@H](O)C[C@@]2(C)[C@H]1CC[C@]2(O)C(=O)CO` [Hydrocortisone]?
Answer: decrease in thymus weight compared to the control (in words) (thymus weight in rats; 0.75 μmol topical): causes a significant decrease in thymus weight compared to the control; Total Weight per Rat, % Gain ± SD (thymus weight in rats; [1]): 24 ± 7%; Total Weight per Rat, Final (thymus weight in rats; [1]): 61.15 g; mg Thymus ± SD / 100 g Rat (thymus weight in rats; [1]): 274 ± 45 mg/100 g; blanching (blanching in humans; 0.03 to 0.0003 M, 50 microliter, read 1 to 5 hours after removal): blanching was not observed at concentrations of hydrocortisone below 0.03 M; concentration causing approximately the same degree of blanching (blanching in humans; direct comparison): ~0.03 M
